Data as given in US9302999B2, “Substituted triazoles as herbicides” (E. I. DU PONT DE NEMOURS AND COMPANY, priority 2012, dated 2016).
Read-outs that look alike come from different tables or passages of the source.

Columns and labels:
Type in all cases: in vivo
[1] = test system: wheat (Triticum aestivum); experiment: Test A pre-/postemergence: wheat; conditions: for plant injury at 125 g/ha / plant injury at 500 g/ha: Triticum aestivum, 240 h
In short: (§1)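 Compounds, formulated with surfactant in non-phytotoxic solvent, were applied as a directed soil spray preemergence and as postemergence sprays to 2–10 cm, one- to two-leaf seedlings grown in loam soil blended with sand; visual injury, 0–100, assessed ~10 days post-treatment against untreated controls.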

[2] = test system: pigweed (Amaranthus retroflexus); experiment: Test A pre-/postemergence: pigweed; conditions: for pest or weed control at 125 g/ha / pest or weed control at 500 g/ha: Amaranthus retroflexus, 240 h
In short: as §1

corn (Zea mays) = experiment: Test A pre-/postemergence: corn; conditions: for plant injury at 125 g/ha / plant injury at 500 g/ha / Corn plant response rating (crop injury, 0 = no effect, 100 = complete kill) at 125 g/ha / Corn plant response rating (crop injury, 0 = no effect, 100 = complete kill) at 500 g/ha: Zea mays, 240 h; for plant injury at 125 g/ha / plant injury at 500 g/ha: post-emergence, read-out: Corn plant response rating; for plant injury at 500 g/ha: visual rating on 0 to 100 scale (0 no effect, 100 complete control), approximately ten days; for Corn plant response rating (crop injury, 0 = no effect, 100 = complete kill) at 125 g/ha / Corn plant response rating (crop injury, 0 = no effect, 100 = complete kill) at 500 g/ha: pre-emergence
In short: as §1

[3] = test system: ducksalad (Heteranthera limosa); experiment: Test B flooded paddy: ducksalad; conditions: Flood, applied to paddy water at 2-leaf stage, visually evaluated after 13 to 15 days
In short: (§2)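 Plants were grown to the 2-leaf stage and pots flooded to 3 cm above soil. Compounds were applied directly into the paddy water, with depth kept for the test. After 13–15 days in greenhouse, response was rated visually against controls on a 0 (no effect) to 100 (complete control) scale.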

[4] = test system: sedge, umbrella (small-flower umbrella sedge Cyperus difformis); experiment: Test B flooded paddy: sedge, umbrella; conditions: Flood, applied to paddy water at 2-leaf stage, visually evaluated after 13 to 15 days
In short: as §2

[5] = test system: morningglory (Ipomoea coccinea); experiment: Test C pre-/postemergence: morningglory; conditions: Preemergence
Source text: (§3) Seeds of plant species selected from blackgrass (Alopecurus myosuroides), bromegrass, downy (downy bromegrass, Bromus tectorum), foxtail, green (green foxtail, Setaria viridis), ryegrass, Italian (Italian ryegrass, Lolium multiflorum), winter wheat (Triticum aestivum), wild oat (Avena fatua), galium (catchweed bedstraw, Galium aparine), bermudagrass (Cynodon dactylon), surinam grass (Brachiaria decumbens), cocklebur (common cocklebur, Xanthium strumarium), corn (Zea mays), large crabgrass (Digitaria sanguinalis), woolly cupgrass (Eriochloa villosa), foxtail, giant (giant foxtail, Setaria faberii), goosegrass (Eleusine indica), johnsongrass (Sorghum halepense), kochia (Kochia scoparia), lambsquarters (Chenopodium album), morningglory (Ipomoea coccinea), nightshade (eastern black nightshade, Solanum ptycanthum), nutsedge, yellow (yellow nutsedge, Cyperus esculentus), pigweed (Amaranthus retroflexus), ragweed (common ragweed, Ambrosia elation), soybean (Glycine max), common (oilseed) sunflower (Helianthus annuus), Russian thistle (Salsola kali) and velvetleaf (Abutilon theophrasti) were planted into a blend of loam soil and sand and treated preemergence with test chemicals formulated in a non-phytotoxic solvent mixture which included a surfactant.
(§4) At the same time, plants selected from these crop and weed species and also barley (winter barley, Hordeum vulgare), canarygrass (Phalaris minor), chickweed (common chickweed, Stellaria media) windgrass (Apera spica-venti) and deadnettle (henbit deadnettle, Lamium amplexicaule) were planted in pots containing Redi-Earth® planting medium (Scotts Company, 14111 Scottslawn Road, Marysville, Ohio 43041) comprising spaghnum peat moss, vermiculite, wetting agent and starter nutrients and treated with postemergence applications of test chemicals formulated in the same manner. Plants ranged in height from 2 to 18 cm (1- to 4-leaf stage) for postemergence treatments.
(§5) Treated plants and controls were maintained in a greenhouse for 13 to 15 days, after which time all species were compared to controls and visually evaluated. Plant response ratings, summarized in Table C, are based on a scale of 0 to 100 where 0 is no effect and 100 is complete control. A dash (-) response means no test result.

[6] = test system: ragweed (common ragweed, Ambrosia elation); experiment: Test C pre-/postemergence: ragweed; conditions: Preemergence
Source text: as §3, §4, §5

[7] = post-emergence, Postemergence, 125 g ai/ha, 0 to 100 scale, 0 is no effect, 100 is complete control, read-out: Wheat plant response rating
[8] = post-emergence, Postemergence, 500 g ai/ha, visual rating on 0 to 100 scale (0 no effect, 100 complete control), approximately ten days, read-out: Wheat plant response rating
[9] = pre-emergence, Preemergence, 125 g ai/ha, 0 to 100 scale (0 no effect, 100 complete control), read-out: Plant response rating, Wheat
[10] = pre-emergence, Preemergence, 500 g ai/ha, 0 to 100 scale, 0 is no effect, 100 is complete control, read-out: Plant response rating, Wheat
[11] = post-emergence, Postemergence, 125 g ai/ha, 0 to 100 scale, 0 is no effect, 100 is complete control, read-out: Pigweed plant response rating
[12] = post-emergence, Postemergence, 500 g ai/ha, visual rating on 0 to 100 scale (0 no effect, 100 complete control), approximately ten days, read-out: Pigweed plant response rating
[13] = pre-emergence, Preemergence, 125 g ai/ha, 0 to 100 scale (0 no effect, 100 complete control), read-out: Plant response rating, Pigweed
[14] = pre-emergence, Preemergence, 500 g ai/ha, 0 to 100 scale, 0 is no effect, 100 is complete control, read-out: Plant response rating, Pigweed
[15] = Postemergence, 125 g ai/ha, 0 to 100 scale, 0 is no effect, 100 is complete control
[16] = Preemergence, 125 g ai/ha, 0 to 100 scale (0 no effect, 100 complete control)
[17] = Preemergence, 500 g ai/ha, 0 to 100 scale, 0 is no effect, 100 is complete control
[18] = pre-emergence, Preemergence, 125 g ai/ha, 0 to 100 scale where 0 is no effect and 100 is complete control, read-out: Plant response rating, Wheat
[19] = pre-emergence, Preemergence, 500 g ai/ha, 0 to 100 scale (0 no effect, 100 complete control), read-out: Plant response rating, Wheat
[20] = pre-emergence, Preemergence, 125 g ai/ha, 0 to 100 scale where 0 is no effect and 100 is complete control, read-out: Plant response rating, Pigweed
[21] = pre-emergence, Preemergence, 500 g ai/ha, 0 to 100 scale (0 no effect, 100 complete control), read-out: Plant response rating, Pigweed
[22] = Preemergence, 125 g ai/ha, 0 to 100 scale where 0 is no effect and 100 is complete control
[23] = Preemergence, 500 g ai/ha, 0 to 100 scale (0 no effect, 100 complete control)
[24] = 31 g ai/ha, scale of 0 to 100, 0 is no effect, 100 is complete control
[25] = 62 g ai/ha, scale of 0 to 100, 0 is no effect, 100 is complete control
[26] = 125 g ai/ha, scale 0 to 100, 0 no effect, 100 complete control
[27] = 250 g ai/ha, scale 0 to 100, 0 no effect, 100 complete control
[28] = Postemergence, 500 g ai/ha, 0 to 100 scale, 0 is no effect, 100 is complete control

Cc1nn(-c2ccc(C(F)(F)F)cc2)nc1Oc1csc(C(F)(F)F)c1 [Compound 1, 4-methyl-2-[4-(trifluoromethyl)phenyl]-5-[[5-(trifluoromethyl)-3-thienyl]oxy]-2H-1,2,3-triazole]
plant injury at 125 g/ha [1, 7]: 10% | plant injury at 500 g/ha [1, 8]: 20% | plant injury at 125 g/ha [1, 9]: 0% | plant injury at 500 g/ha [1, 10]: 0% | pest or weed control at 125 g/ha [2, 11]: 90% | pest or weed control at 500 g/ha [2, 12]: 100% | pest or weed control at 125 g/ha [2, 13]: 60% | pest or weed control at 500 g/ha [2, 14]: 90% | plant injury at 125 g/ha (corn (Zea mays); [15]): 20% | plant injury at 500 g/ha (corn (Zea mays); Postemergence, 500 g ai/ha): 20% | Corn plant response rating (crop injury, 0 = no effect, 100 = complete kill) at 125 g/ha (corn (Zea mays); [16]): 0% | Corn plant response rating (crop injury, 0 = no effect, 100 = complete kill) at 500 g/ha (corn (Zea mays); [17]): 0%

Cc1nn(-c2ccc(F)cc2F)nc1Cc1ccnc(C(F)(F)F)c1 [Compound 54, 4-[[2-(2,4-difluorophenyl)-5-methyl-2H-1,2,3-triazol-4-yl]methyl]-2-(trifluoromethyl)pyridine]
Plant response rating, Ducksalad (0 to 100 scale, 0 is no effect, 100 is complete control) ([3]; 250 g ai/ha): 85 | plant injury at 125 g/ha [1, 7]: 20% | plant injury at 500 g/ha [1, 8]: 30% | plant injury at 125 g/ha [1, 9]: 10% | plant injury at 500 g/ha [1, 10]: 30% | pest or weed control at 125 g/ha [2, 11]: 100% | pest or weed control at 500 g/ha [2, 12]: 100% | pest or weed control at 125 g/ha [2, 13]: 100% | pest or weed control at 500 g/ha [2, 14]: 100% | plant injury at 125 g/ha (corn (Zea mays); [15]): 30% | plant injury at 500 g/ha (corn (Zea mays); Postemergence, 500 g ai/ha): 60% | Corn plant response rating (crop injury, 0 = no effect, 100 = complete kill) at 125 g/ha (corn (Zea mays); [16]): 10% | Corn plant response rating (crop injury, 0 = no effect, 100 = complete kill) at 500 g/ha (corn (Zea mays); [17]): 40% | Plant response rating, Sedge, Umbrella (0 to 100 scale, 0 is no effect, 100 is complete control) ([4]; 250 g ai/ha): 85

COCc1nn(-c2ccc(C(F)(F)F)cc2)nc1Oc1cccc(OC(F)(F)F)c1 [Compound 115, 4-(methoxymethyl)-5-[3-(trifluoromethoxy)phenoxy]-2-[4-(trifluoromethyl)phenyl]-2H-1,2,3-triazole]
plant injury at 125 g/ha [1, 7]: 10% | plant injury at 500 g/ha [1, 8]: 20% | plant injury at 125 g/ha [1, 18]: 0% | plant injury at 500 g/ha [1, 19]: 10% | pest or weed control at 125 g/ha [2, 11]: 80% | pest or weed control at 500 g/ha [2, 12]: 100% | pest or weed control at 125 g/ha [2, 20]: 100% | pest or weed control at 500 g/ha [2, 21]: 100% | plant injury at 125 g/ha (corn (Zea mays); [15]): 10% | plant injury at 500 g/ha (corn (Zea mays); Postemergence, 500 g ai/ha): 30% | Corn plant response rating (crop injury, 0 = no effect, 100 = complete kill) at 125 g/ha (corn (Zea mays); [22]): 0% | Corn plant response rating (crop injury, 0 = no effect, 100 = complete kill) at 500 g/ha (corn (Zea mays); [23]): 10%

FCc1nn(-c2ccc(C(F)(F)F)cc2)nc1Oc1cccc(OC(F)(F)F)c1 [Compound 116, 4-(fluoromethyl)-5-[3-(trifluoromethoxy)phenoxy]-2-[4-(trifluoromethyl)phenyl]-2H-1,2,3-triazole]
plant injury at 125 g/ha [1, 7]: 10% | plant injury at 500 g/ha [1, 8]: 10% | plant injury at 125 g/ha [1, 18]: 0% | plant injury at 500 g/ha [1, 19]: 10% | pest or weed control at 125 g/ha [2, 11]: 50% | pest or weed control at 500 g/ha [2, 12]: 100% | pest or weed control at 125 g/ha [2, 20]: 50% | pest or weed control at 500 g/ha [2, 21]: 100% | plant injury at 125 g/ha (corn (Zea mays); [15]): 20% | plant injury at 500 g/ha (corn (Zea mays); Postemergence, 500 g ai/ha): 30% | Corn plant response rating (crop injury, 0 = no effect, 100 = complete kill) at 125 g/ha (corn (Zea mays); [22]): 0% | Corn plant response rating (crop injury, 0 = no effect, 100 = complete kill) at 500 g/ha (corn (Zea mays); [23]): 10%

CCOCc1nn(-c2ccc(F)cc2)nc1Oc1ccnc(C(F)(F)F)c1 [Compound 163]
Plant response rating, Morningglory [5, 24]: 20 | Plant response rating, Morningglory [5, 25]: 25 | Plant response rating, Morningglory [5, 26]: 30 | Plant response rating, Morningglory [5, 27]: 75 | Plant response rating, Ducksalad (0 to 100 scale, 0 is no effect, 100 is complete control) ([3]; 125 g ai/ha): 70 | Plant response rating, Wheat [1, 15]: 20 | Wheat plant response rating [1, 28]: 40 | Plant response rating, Wheat [1, 22]: 0 | Plant response rating, Wheat [1, 23]: 0 | Plant response rating, Pigweed [2, 15]: 100 | Pigweed plant response rating [2, 28]: 100 | Plant response rating, Pigweed [2, 22]: 100 | Plant response rating, Pigweed [2, 23]: 100 | Plant response rating, Corn (corn (Zea mays); [15]): 20 | Corn plant response rating (corn (Zea mays); [28]): 30 | Plant response rating, Corn (corn (Zea mays); [22]): 0 | Plant response rating, Corn (corn (Zea mays); [23]): 10 | Plant response rating, Sedge, Umbrella (0 to 100 scale, 0 is no effect, 100 is complete control) ([4]; 125 g ai/ha): 80 | Plant response rating, Ragweed [6, 24]: 0 | Plant response rating, Ragweed [6, 25]: 10 | Plant response rating, Ragweed [6, 26]: 20 | Plant response rating, Ragweed [6, 27]: 35
